≈ marks a conversion by molar mass, not a printed value. Calls of active or inactive are those of the source. No cut-off for these calls is given here. Where a SMILES comes first, the peptide text is derived from it. Bridges are numbered along the chain shown (N, C = ends). [ ]: non-standard residue; d: D form. The star is where a group is joined. X1 = CC[C@H](C)CCCCC(=O)*; Dab = NCC[C@H](N)C(=O)O Bounds are passed on as bounds.

The subject of one assay is Enterococcus faecalis. Kind of assay: Antibacterial activity against Enterococcus faecalis ATCC 29212 incubated for 18 to 24 hrs by broth microdilution method. It counts as functional. Particulars: time 18-24 hrs. Background: In broth dilution the organism is exposed to a series of concentrations in liquid medium.
Assay [1] has as its system Staphylococcus aureus. The assay is described as follows: Antibacterial activity against Staphylococcus aureus ATCC 29213 incubated for 18 to 24 hrs by broth microdilution method. It counts as functional. Particulars: time 18-24 hrs.
Assay [2] deals with Staphylococcus aureus. The assay is described as follows: Induction of drug resistance in methicillin-resistant Staphylococcus aureus ATCC 33591 assessed as fold increase in MIC at sub-MIC measured after 14 passages relative to control. It is filed as functional.
The test system of assay [3] is Staphylococcus aureus. Kind of assay: Induction of drug resistance in Staphylococcus aureus ATCC 25923 at sub-MIC measured after 2 passages. It is filed as functional, organism-based.
For assay [4], the system named is Staphylococcus aureus. Kind of assay: Antibacterial activity against methicillin-resistant Staphylococcus aureus ATCC 33591 incubated for 18 to 24 hrs by broth microdilution method. It is filed as functional. The note with it: time 18-24 hrs.
Assay [5] relates to Staphylococcus epidermidis. The assay is described as follows: Antibacterial activity against Staphylococcus epidermidis ATCC 12228 incubated for 18 to 24 hrs by broth microdilution method. It is filed as functional. Particulars: time 18-24 hrs.
Assay [6] has as its system Staphylococcus aureus. Kind of assay: Antibacterial activity against Staphylococcus aureus ATCC 25923 incubated for 18 to 24 hrs by broth microdilution method. It is filed as functional. Particulars: time 18-24 hrs.
The test system of assay [7] is Staphylococcus aureus. Kind of assay: Induction of drug resistance in Staphylococcus aureus ATCC 25923 assessed as fold increase in MIC at sub-MIC measured after 10 passages relative to control. It counts as functional.
The test system of assay [8] is Staphylococcus aureus. Kind of assay: Antibacterial activity against gentamicin-resistant Staphylococcus aureus ATCC 25923 incubated for 18 to 24 hrs. It counts as functional. Particulars: time 18-24 hrs.
Assay [9] has as its system Staphylococcus aureus. The assay is described as follows: Antibacterial activity against drug-resistant Staphylococcus aureus ATCC 25923 incubated for 18 to 24 hrs. Particulars: time 18-24 hrs. It counts as functional.
For assay [10], the system named is Staphylococcus aureus. The assay is described as follows: Antibacterial activity against polymyxin B-resistant Staphylococcus aureus ATCC 25923 incubated for 18 to 24 hrs. It counts as functional. The note with it: time 18-24 hrs.
Assay [11] relates to Staphylococcus aureus. The assay is described as follows: Antibacterial activity against gentamicin-resistant methicillin-resistant Staphylococcus aureus ATCC 33591 incubated for 18 to 24 hrs. It is filed as functional. Particulars: time 18-24 hrs.
The test system of assay [12] is Staphylococcus aureus. The assay is described as follows: Antibacterial activity against ciprofloxacin-resistant methicillin-resistant Staphylococcus aureus ATCC 33591 incubated for 18 to 24 hrs. It is filed as functional. Particulars: time 18-24 hrs.
In assay [13] the test system is Staphylococcus aureus. The assay is described as follows: Antibacterial activity against polymyxin B-resistant methicillin-resistant Staphylococcus aureus ATCC 33591 incubated for 18 to 24 hrs. It is filed as functional. Particulars: time 18-24 hrs.
For assay [14], the system named is Staphylococcus aureus. The assay is described as follows: Antibacterial activity against methicillin-resistant Staphylococcus aureus ATCC 33591 infected in Balb/c mouse model of skin wound infection assessed as wound heal at 10 mg/kg, ip administered thrice at 1, 24 and 48 hrs post-infection measured after 14 days relative to control. It counts as functional. Particulars: time 14 day.

Assay [15] has as its system Staphylococcus aureus. The assay is described as follows: Antibacterial activity against ciprofloxacin-resistant Staphylococcus aureus ATCC 25923 incubated for 18 to 24 hrs. It counts as functional. The note with it: time 18-24 hrs.
Assay [16] has as its system Staphylococcus aureus. The assay is described as follows: Antibacterial activity against drug-resistant methicillin-resistant Staphylococcus aureus ATCC 33591 incubated for 18 to 24 hrs. Particulars: time 18-24 hrs. It counts as functional.
Assay [17] deals with Staphylococcus aureus. Kind of assay: Antibacterial activity against methicillin-resistant Staphylococcus aureus ATCC 33591 infected in Balb/c mouse model of skin wound infection assessed as crusted back wound at 10 mg/kg, ip administered thrice at 1, 24 and 48 hrs post-infection measured after 9 days relative to control. It counts as functional. The note with it: time 9 day.

The term MIC denotes the lowest concentration that inhibits growth of the organism. In the case of `C[C@@H](O)[C@H]1C(=O)N2C(C(=O)O)=C(SCCNC=N)C[C@H]12` [IMIPENEM ANHYDROUS], the MIC against Enterococcus faecalis is 2 µM (≈ 0.599 µg/mL); against Staphylococcus aureus [1] it was 2 µM (≈ 0.599 µg/mL); against Staphylococcus aureus [4] it was 32 µM (≈ 9.58 µg/mL); in assay [5], 4 µM (≈ 1.2 µg/mL); against Staphylococcus aureus [6], 4 µM (≈ 1.2 µg/mL). For the same compound, the entries for the “fold change (FC)” value in the assay with Staphylococcus aureus [2] and in the assay with Staphylococcus aureus [7] were 64 and 2048, respectively. Also, the outcome with Staphylococcus aureus [3] was Active.
Take `CC(C)CCCCC(=O)N[C@@H](CCN)C(=O)N[C@H](C(=O)N[C@@H](CCN)C(=O)N[C@H]1CCNC(=O)[C@H]([C@@H](C)O)NC(=O)[C@H](CCN)NC(=O)[C@H](CCN)NC(=O)[C@H](CC(C)C)NC(=O)[C@@H](Cc2ccccc2)NC(=O)[C@H](CCN)NC1=O)[C@@H](C)O.CC[C@H](C)CCCCC(=O)N[C@@H](CCN)C(=O)N[C@H](C(=O)N[C@@H](CCN)C(=O)N[C@H]1CCNC(=O)[C@H]([C@@H](C)O)NC(=O)[C@H](CCN)NC(=O)[C@H](CCN)NC(=O)[C@H](CC(C)C)NC(=O)[C@@H](Cc2ccccc2)NC(=O)[C@H](CCN)NC1=O)[C@@H](C)O` (X1-[Dab]T[Dab][Dab][Dab][dF]L[Dab][Dab]T; lactam 4-C): the MIC against Enterococcus faecalis was 128 µM; with Staphylococcus aureus [1] it was 4 µM; against Staphylococcus aureus [8], above 128 µM; with Staphylococcus aureus [9] it was above 128 µM; in the assay with Staphylococcus aureus [10], 512 µM; against Staphylococcus aureus [4], 16 µM. The MIC stood at 128 µM against Staphylococcus aureus [11]; 4 µM in the assay on Staphylococcus aureus [12]; 2050 µM against Staphylococcus aureus [13]; 128 µM in the assay with Staphylococcus aureus [15]; 2 µM in [5]; 4 µM in the assay on Staphylococcus aureus [6]. In the assay on Staphylococcus aureus [16], this compound had an MIC of 128 µM. Further, the Activity in the assay on Staphylococcus aureus [14] and with Staphylococcus aureus [17] was 100% in each case.

(Values after ChEMBL document CHEMBL6114969, “Ultra-short lipopeptides containing d-amino acid exhibiting excellent stability and antibacterial activity against gram-positive bacteria” (Eur J Med Chem, 2025).)
